Data: patent publication US20180117043A1, “USE OF SRC PROTEIN INHIBITOR IN THE MANUFACTURE OF A MEDICAMENT FOR THE PROPHYLAXIS AND/OR TREATMENT OF ALZHEIMER'S DISEASE” (JenKem Technology Co., Ltd. (Beijing), priority 2015, published 2018)

Legend:
[1] = test system: transgenic fruit flies and double transgenic mice expressing Aβ42; conditions: cited from earlier work; for treatment of Aβ42-induced memory loss: transgenic fruit flies and double transgenic mice expressing Aβ42, WO2012/103282; for curative effect in screening: compounds screened in WO2012/103282
[2] = test system: primary isolated fetal mouse cerebral cortical neuron; experiment: Neuroprotective activity assay against Aβ42 oligomer toxicity, cell viability detected with WST-8; conditions: 24 h
[3] = 0.001 μM/L drug + Aβ42 10 μmol/L
[4] = 0.01 μM/L drug + Aβ42 10 μmol/L
[5] = 1000 μM/L drug + Aβ42 10 μmol/L
[6] = Aβ42 oligomer 10 μmol/L, compared with model group

SMILES: CN(C)C/C=C/C(=O)Nc1cc2c(Nc3ccc(F)c(Cl)c3)ncnc2cc1O[C@H]1CCOC1 [BIBW 2992]
- treatment of Aβ42-induced memory loss [1]: effective

SMILES: CCOc1cc2ncc(C#N)c(Nc3ccc(F)c(Cl)c3)c2cc1NC(=O)/C=C/CN(C)C [EKB-569]
- treatment of Aβ42-induced memory loss [1]: effective

SMILES: CCN1CCN(Cc2ccc(-c3cc4c(N[C@H](C)c5ccccc5)ncnc4[nH]3)cc2)CC1 [AEE 788]
- treatment of Aβ42-induced memory loss [1]: effective

SMILES: Cc1nc(Nc2ncc(C(=O)Nc3c(C)cccc3Cl)s2)cc(N2CCN(CCO)CC2)n1 [Compound I, N-(2-chloro-6-methylphenyl)-2-{6-[4-(3-hydroxyethyl)-1-piperazinyl]-2-methyl-4-pyrimidinylamino}-5-thiazolecarboxamide]
- Mean value of cell viability based on three independent replicates ([2]; 0.001 μM drug + Aβ42 10 μmol/L): 46.65%
- Cell viability data in the first independent test [2, 3]: 26.98%
- Cell viability data in the second independent test [2, 3]: 54.70%
- Cell viability data in the third independent test [2, 3]: 58.28%
- Mean value of cell viability based on three independent replicates ([2]; 0.01 μM drug + Aβ42 10 μmol/L): 67.99%
- Cell viability data in the first independent test [2, 4]: 69.31%
- Cell viability data in the second independent test [2, 4]: 67.22%
- Cell viability data in the third independent test [2, 4]: 67.46%
- Mean value of cell viability based on three independent replicates ([2]; 0.1 μM drug + Aβ42 10 μmol/L): 71.02%
- Cell viability data in the first independent test ([2]; 0.1 μM/L drug + Aβ42 10 μmol/L): 80.78%
- Cell viability data in the second independent test ([2]; 0.1 μM/L drug + Aβ42 10 μmol/L): 64.25%
- Cell viability data in the third independent test ([2]; 0.1 μM/L drug + Aβ42 10 μmol/L): 68.05%
- Mean value of cell viability based on three independent replicates ([2]; 1.0 μM drug + Aβ42 10 μmol/L): 72.44%
- Cell viability data in the first independent test ([2]; 1 μM/L drug + Aβ42 10 μmol/L): 76.90%
- Cell viability data in the second independent test ([2]; 1 μM/L drug + Aβ42 10 μmol/L): 65.73%
- Cell viability data in the third independent test ([2]; 1 μM/L drug + Aβ42 10 μmol/L): 74.70%
- Mean value of cell viability based on three independent replicates ([2]; 10 μM drug + Aβ42 10 μmol/L): 63.20%
- Cell viability data in the first independent test ([2]; 10 μM/L drug + Aβ42 10 μmol/L): 68.61%
- Cell viability data in the second independent test ([2]; 10 μM/L drug + Aβ42 10 μmol/L): 56.51%
- Cell viability data in the third independent test ([2]; 10 μM/L drug + Aβ42 10 μmol/L): 64.50%
- Mean value of cell viability based on three independent replicates ([2]; 100 μM drug + Aβ42 10 μmol/L): 73.40%
- Cell viability data in the first independent test ([2]; 100 μM/L drug + Aβ42 10 μmol/L): 74.43%
- Cell viability data in the second independent test ([2]; 100 μM/L drug + Aβ42 10 μmol/L): 86.16%
- Cell viability data in the third independent test ([2]; 100 μM/L drug + Aβ42 10 μmol/L): 59.62%
- Mean value of cell viability based on three independent replicates ([2]; 1000 μM drug + Aβ42 10 μmol/L): 64.34%
- Cell viability data in the first independent test [2, 5]: 76.72%
- Cell viability data in the second independent test [2, 5]: 63.92%
- Cell viability data in the third independent test [2, 5]: 52.37%
- dose span of effective concentration range relative to JKF-027 ([2]; Aβ42 oligomer 10 μmol/L): 10^4 times
- effective concentration range (anti-toxic effect against Aβ42 oligomer) [2, 6]: 0.01 to 1000 µmol/L

SMILES: N#C/C(=C\c1ccc(-c2cc(C(=O)O)ccc2Cl)o1)C(=O)Nc1ccc(F)cc1 [JKF-006]
- curative effect in screening [1]: preferable curative effect
- treatment of Aβ42-induced memory loss [1]: effective

SMILES: COc1cc2c(Nc3ccc(Cl)c(Cl)c3F)ncnc2cc1OC[C@@H]1C[C@@H]2CN(C)C[C@@H]2C1 [XL647]
- treatment of Aβ42-induced memory loss [1]: effective

SMILES: COc1cc2c(Nc3ccc(Br)cc3F)ncnc2cc1OCC1CCN(C)CC1 [ZD-6474]
- treatment of Aβ42-induced memory loss [1]: effective

SMILES: CC#CC(=O)Nc1ccc2ncnc(Nc3cccc(Br)c3)c2c1 [CL-387785]
- treatment of Aβ42-induced memory loss [1]: effective

SMILES: CCOc1cc2ncc(C#N)c(Nc3ccc(OCc4cccc(F)c4)c(Cl)c3)c2cc1NC(=O)/C=C/CN(C)C [HKI-357]
- treatment of Aβ42-induced memory loss [1]: effective

SMILES: C=CCNc1c(O)cc2c(O)c1C[C@@H](C)C[C@H](OC)[C@H](O)[C@@H](C)/C=C(\C)[C@H](OC(N)=O)[C@@H](OC)/C=C\C=C(/C)C(=O)N2 [IPI-504]
- treatment of Aβ42-induced memory loss [1]: effective

SMILES: C=CCNC1=C2C[C@@H](C)C[C@H](OC)[C@H](O)[C@@H](C)/C=C(\C)[C@H](OC(N)=O)[C@@H](OC)/C=C\C=C(/C)C(=O)NC(=CC1=O)C2=O [Compound 17-AAG]
- treatment of Aβ42-induced memory loss [1]: effective

SMILES: Cc1c(NC(=O)OC[C@@H]2COCCN2)cn2ncnc(Nc3ccc4c(cnn4Cc4cccc(F)c4)c3)c12 [BMS-599626]
- treatment of Aβ42-induced memory loss [1]: effective

SMILES: N#C/C(=C\c1ccc(N2CCOCC2)o1)C(=O)NCCc1c[nH]c2ccccc12 [JKF-027]
- Mean value of cell viability based on three independent replicates ([2]; 0.01 μM drug + Aβ42 10 μmol/L): 46.83%
- Cell viability data in the first independent test [2, 4]: 49.59%
- Cell viability data in the second independent test [2, 4]: 45.88%
- Cell viability data in the third independent test [2, 4]: 45.00%
- Mean value of cell viability based on three independent replicates ([2]; 0.1 μM drug + Aβ42 10 μmol/L): 61.39%
- Cell viability data in the first independent test ([2]; 0.1 μM/L drug + Aβ42 10 μmol/L): 77.44%
- Cell viability data in the second independent test ([2]; 0.1 μM/L drug + Aβ42 10 μmol/L): 48.40%
- Cell viability data in the third independent test ([2]; 0.1 μM/L drug + Aβ42 10 μmol/L): 58.33%
- Mean value of cell viability based on three independent replicates ([2]; 1.0 μM drug + Aβ42 10 μmol/L): 65.31%
- Cell viability data in the first independent test ([2]; 1 μM/L drug + Aβ42 10 μmol/L): 61.59%
- Cell viability data in the second independent test ([2]; 1 μM/L drug + Aβ42 10 μmol/L): 61.01%
- Cell viability data in the third independent test ([2]; 1 μM/L drug + Aβ42 10 μmol/L): 73.33%
- Mean value of cell viability based on three independent replicates ([2]; 10 μM drug + Aβ42 10 μmol/L): 77.28%
- Cell viability data in the first independent test ([2]; 10 μM/L drug + Aβ42 10 μmol/L): 87.60%
- Cell viability data in the second independent test ([2]; 10 μM/L drug + Aβ42 10 μmol/L): 69.75%
- Cell viability data in the third independent test ([2]; 10 μM/L drug + Aβ42 10 μmol/L): 74.50%
- Mean value of cell viability based on three independent replicates ([2]; 100 μM drug + Aβ42 10 μmol/L): 40.52%
- Cell viability data in the first independent test ([2]; 100 μM/L drug + Aβ42 10 μmol/L): 51.83%
- Cell viability data in the second independent test ([2]; 100 μM/L drug + Aβ42 10 μmol/L): 46.89%
- Cell viability data in the third independent test ([2]; 100 μM/L drug + Aβ42 10 μmol/L): 22.83%
- Mean value of cell viability based on three independent replicates ([2]; 1000 μM drug + Aβ42 10 μmol/L): 21.89%
- Cell viability data in the first independent test [2, 5]: 27.85%
- Cell viability data in the second independent test [2, 5]: 18.66%
- Cell viability data in the third independent test [2, 5]: 19.17%
- effective concentration range (anti-toxic effect against Aβ42 oligomer) [2, 6]: 0.1 to 10 µmol/L
- optimum anti-toxic concentration [2, 6]: 0.1 to 10 µmol/L
- curative effect in screening [1]: preferable curative effect
- treatment of Aβ42-induced memory loss [1]: effective
